From patent publication US20110263593A1, “NOVEL IMIDAZO[1,2-a]PYRIMIDINE DERIVATIVES, METHOD FOR THE PREPARATION THEREOF, USE THEREOF AS MEDICAMENTS, PHARMACEUTICAL COMPOSITIONS AND NOVEL USE, IN PARTICULAR AS MET INHIBITORS” (sanofi-aventis, priority 2008, published 2011)

Key:
[1] = tested on: HCT116 cells and MKN45 cells; experiment: Test C: measurement of cell proliferation by 14C-thymidine pulse; format: cell-based; details: 14C-thymidine incorporation, 96 h of treatment; cell line not stated (HCT116 and MKN45 in method)
Procedure: C) Test C: Measurement of cell proliferation by ^14C-thymidine pulse
The cells are seeded into Cytostar 96-well plates in 180 μl for 4 hours at 37° C. and 5% CO2: HCT116 cells at a rate of 2500 cells per well in DMEM medium+10% foetal calf serum+1% L-glutamine and MKN45 cells at a rate of 7500 cells per well in RPMI medium+10% foetal calf serum+1% L-glutamine. After these 4 hours of incubation, the products are added in 10 μl as a 20-fold concentrated solution according to the dilution method mentioned for the ELISA. The products are tested at 10 concentrations in duplicate from 10 000 nM to 0.3 nM with an increment of 3.
After treatment for 72 h, add 10 μl of ^14C-thymidine at 10 μCi/ml to obtain 0.1 μCi per well. The ^14C-thymidine incorporation is measured on a Micro-Beta machine (Perkin-Elmer) after 24 hours of pulse and 96 h of treatment.
All the stages of the assay are automated on BIOMEK 2000 or TECAN stations.

[2] = biological target: T1, MET (Homo sapiens, UniProt P08581); experiment: Test B: inhibition of the autophosphorylation of MET, ELISA technique (pppY1230, 1234, 1235) in MKN45 cells; format: cell-based; design: endogenous in cells; host or cells: MKN45 cells; details: 1 h treatment, phosphoMET ELISA
Procedure: B) Test B: Inhibition of the Autophosphorylation of MET; ELISA Technique (pppY1230, 1234, 1235)
a) Cell lysates: Seed MKN45 cells into 96-well plates (Cell coat BD polylysine) at 20 000 cells/well in 200 μl in RPMI medium+10% FCS+1% L-glutamine. Leave to adhere for 24 hours in an incubator.
The cells are treated the day after seeding with the products at 6 concentrations in duplicate for 1 h. At least 3 control wells are treated with the same final amount of DMSO.
Product dilution: Stock at 10 mM in pure DMSO—range from 10 mM to 30 μM with an increment of 3 in pure DMSO—intermediate 1/50 dilutions in culture medium and then removal of 10 μl added directly to the cells (200 μl): final range from 10 000 to 30 nM.
At the end of the incubation, carefully remove the supernatant and rinse with 200 μl of PBS. Next, place 100 μl of lysis buffer directly in the wells on ice and incubate at 4° C. for 30 minutes. Lysis buffer: 10 mM Tris HCl, pH 7.4, 100 mM NaCl, 1 mM EDTA, 1 mM EGTA, 1% Triton X-100, 10% glycerol, 0.1% SDS, 0.5% deoxycholate, 20 mM NaF, 2 mM Na3VO4, 1 mM PMSF and cocktail of antiproteases.
The 100 μl of lysates are transferred into a V-bottomed polypropylene plate and the ELISA is performed immediately, or the plate is frozen at −80° C.
b) PhosphoMET ELISA BioSource Kit KH00281
Into each well of the kit plate, add 70 μl of kit dilution buffer+30 μl of cell lysate or 30 μl of lysis buffer for the blanks. Incubate for 2 h with gentle agitation at ambient temperature.
Rinse the wells 4 times with 400 μl of kit washing buffer. Incubate with 100 μl of anti-phospho MET antibody for 1 hour at ambient temperature.
Rinse the wells 4 times with 400 μl of kit washing buffer. Incubate with 100 μl of anti-rabbit HRP antibody for 30 minutes at ambient temperature (except for the wells of chromogen alone).
Rinse the wells 4 times with 400 μl of kit washing buffer. Introduce 100 μl of chromogen and incubate for 30 minutes in the dark at ambient temperature.
Stop the reaction with 100 μl of stop solution. Read without delay at […], 0.1 second on Wallac Victor plate reader.
Target sequence in this assay (P08581 25-1390): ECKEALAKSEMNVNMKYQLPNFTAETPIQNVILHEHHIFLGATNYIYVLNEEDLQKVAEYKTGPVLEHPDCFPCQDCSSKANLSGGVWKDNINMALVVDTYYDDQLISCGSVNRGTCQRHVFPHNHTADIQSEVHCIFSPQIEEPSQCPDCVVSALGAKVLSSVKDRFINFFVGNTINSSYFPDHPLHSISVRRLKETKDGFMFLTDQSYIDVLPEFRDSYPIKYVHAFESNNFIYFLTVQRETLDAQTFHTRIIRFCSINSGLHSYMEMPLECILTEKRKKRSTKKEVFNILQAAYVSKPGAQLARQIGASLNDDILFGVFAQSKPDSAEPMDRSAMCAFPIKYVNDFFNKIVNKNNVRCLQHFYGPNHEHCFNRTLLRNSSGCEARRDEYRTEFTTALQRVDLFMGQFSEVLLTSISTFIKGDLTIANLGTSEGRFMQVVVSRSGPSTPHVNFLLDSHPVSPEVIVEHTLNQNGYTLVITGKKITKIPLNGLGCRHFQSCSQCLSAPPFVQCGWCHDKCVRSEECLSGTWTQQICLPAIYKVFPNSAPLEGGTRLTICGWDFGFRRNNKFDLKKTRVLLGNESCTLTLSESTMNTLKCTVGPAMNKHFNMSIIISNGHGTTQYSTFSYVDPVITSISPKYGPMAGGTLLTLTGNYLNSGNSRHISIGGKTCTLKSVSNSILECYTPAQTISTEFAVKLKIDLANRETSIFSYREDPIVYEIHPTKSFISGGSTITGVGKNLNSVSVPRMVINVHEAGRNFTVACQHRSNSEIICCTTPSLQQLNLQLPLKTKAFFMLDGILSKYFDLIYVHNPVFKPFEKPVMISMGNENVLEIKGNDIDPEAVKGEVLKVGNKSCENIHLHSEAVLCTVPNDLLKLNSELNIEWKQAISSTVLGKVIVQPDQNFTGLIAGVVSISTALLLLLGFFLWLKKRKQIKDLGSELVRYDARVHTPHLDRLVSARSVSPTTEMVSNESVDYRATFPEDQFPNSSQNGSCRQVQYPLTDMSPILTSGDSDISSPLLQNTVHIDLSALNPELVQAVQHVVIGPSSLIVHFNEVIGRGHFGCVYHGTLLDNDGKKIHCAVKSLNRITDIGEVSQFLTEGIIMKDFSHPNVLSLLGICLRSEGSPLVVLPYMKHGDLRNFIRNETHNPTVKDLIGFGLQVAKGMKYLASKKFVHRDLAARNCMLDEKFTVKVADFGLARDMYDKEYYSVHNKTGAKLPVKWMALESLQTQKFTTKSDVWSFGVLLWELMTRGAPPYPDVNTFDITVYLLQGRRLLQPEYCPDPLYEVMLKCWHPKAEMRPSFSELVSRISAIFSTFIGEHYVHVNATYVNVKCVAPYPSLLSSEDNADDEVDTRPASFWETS

[3] = biological target: T1, MET; experiment: Test A: HTRF MET assay in 96-well format; format: biochemical; design: The His-Tev-MET (956-1390) recombinant DNA in pFastBac (Invitrogen) is transfected into insect cells; His (N, cleaved yes); Tev cleavage site (N, cleaved yes); made in house; host or cells: SF21 insect cells (baculovirus, pFastBac); details: 5 nM MET, 10 μM ATP
Procedure: I) Expression and Purification of MET, Cytoplasmic Domain
The His-Tev-MET (956-1390) recombinant DNA in pFastBac (Invitrogen) is transfected into insect cells and, after several viral amplification stages, the final baculovirus stock is tested for the expression of the protein of interest.
After infection for 72 h at 27° C. with the recombinant virus, the SF21 cell cultures are harvested by centrifugation and the cell pellets are stored at −80° C.
The cell pellets are resuspended in lysis buffer (buffer A [50 mM HEPES, pH 7.5, 250 mM NaCl, 10% glycerol, 1 mM TECP]; + cocktail of protease inhibitors, Roche Diagnostics, without EDTA, ref. 1873580), stirred at 4° C. until the mixture is homogeneous and then lysed mechanically using a “Dounce” type apparatus.
After centrifugation, the lysis supernatant is incubated for 2 h at 4° C. with nickel chelate resin (His-Trap 6 Fast Flow™, GE HealthCare). After washing with 20 volumes of buffer A, the suspension is packed into a column, and the proteins are eluted with a gradient of buffer B (buffer A+290 mM imidazole).
The fractions comprising the protein of interest for the purpose of electrophoretic analysis (SDS PAGE) are combined, concentrated by ultrafiltration (10 kDa cut-off) and injected onto an exclusion chromatography column (Superdex™ 200, GE HealthCare) equilibrated in buffer A.
After enzymatic cleavage of the histidine tag, the protein is reinjected onto a new IMAC nickel chelate chromatography column (His-Trap 6 Fast Flow™, GE HealthCare) equilibrated in buffer A. The fractions eluted with a gradient of buffer B and comprising the protein of interest after electrophoresis (SDS PAGE) are finally combined and conserved at −80° C.
For the production of autophosphorylated protein, the previous fractions are incubated for 1 h at ambient temperature after the addition of 2 mM ATP, 2 mM MgCl2, and 4 mM Na3VO4. After the reaction has been stopped with 5 mM of EDTA, the reaction mixture is injected onto a HiPrep desalifying column (GE HealthCare) preequilibrated in buffer A+4 mM Na3VO4, and the fractions comprising the protein of interest (SDS PAGE analysis) are combined and stored at −80° C. The degree of phosphorylation is verified by mass spectrometry (LC-MS) and by peptide mapping.
A) Test A: HTRF MET Assay in 96-Well Format
MET at a final concentration of 5 nM is incubated in a final volume of 50 μl of enzymatic reaction in the presence of the test molecule (for a final concentration range of from 0.17 nM to 10 μM, 3% DMSO final concentration) in 10 mM MOPS buffer, pH 7.4, 1 mM DTT, 0.01% Tween 20. The reaction is initiated with the substrate solution to obtain final concentrations of 1 μg/ml poly-(GAT), 10 μM ATP and 5 mM MgCl2. After incubation for 10 min at ambient temperature, the reaction is stopped with a 30 μl mix so as to obtain a final solution of 50 mM Hepes, pH 7.5, 500 mM potassium fluoride, 0.1% BSA and 133 mM EDTA in the presence of 80 ng of streptavidin 61SAXLB Cis-Bio Int. and 18 ng of anti-phosphotyrosine Mab PT66-Europium Cryptate per well. After incubation for 2 hours at ambient temperature, the reading is taken at 2 wavelengths, 620 nm and 665 nm, on a reader for the TRACE/HTRF technique and the % inhibition is calculated from the 665/620 ratios.
Target sequence in this assay (P08581 956-1390): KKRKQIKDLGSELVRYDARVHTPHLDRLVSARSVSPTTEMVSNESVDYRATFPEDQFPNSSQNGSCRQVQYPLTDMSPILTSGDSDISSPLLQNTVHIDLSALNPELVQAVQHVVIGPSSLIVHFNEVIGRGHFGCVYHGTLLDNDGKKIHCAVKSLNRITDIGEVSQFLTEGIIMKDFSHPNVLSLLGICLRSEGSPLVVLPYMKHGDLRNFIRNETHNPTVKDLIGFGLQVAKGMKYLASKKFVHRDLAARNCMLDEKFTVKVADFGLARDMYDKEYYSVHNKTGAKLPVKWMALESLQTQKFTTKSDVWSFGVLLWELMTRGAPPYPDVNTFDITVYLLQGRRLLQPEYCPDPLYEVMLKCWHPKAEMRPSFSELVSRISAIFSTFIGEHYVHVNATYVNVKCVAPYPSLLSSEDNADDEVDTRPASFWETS

| SMILES | IC50 [1] | melting point | IC50 [2] | IC50 [3] |
| --- | --- | --- | --- | --- |
| O=C(Nc1nc2ccc(S(=O)(=O)c3cnc4ncccn34)cc2s1)C1CC1 [Example 7, N-[6-(imidazo[1,2-a]pyrimidin-3-ylsulphonyl)-1,3-benzothiazol-2-yl]cyclopropanecarboxamide] | < 1000 nM | 232 °C | < 100 nM | < 100 nM |
| O=C(CCN1CCCC1)Nc1nc2ccc(Sc3cnc4ncccn34)cc2s1 [Example 8, N-[6-(imidazo[1,2-a]pyrimidin-3-ylsulphanyl)-1,3-benzothiazol-2-yl]-3-(pyrrolidin-1-yl)propanamide] | < 1000 nM | 247 °C | < 100 nM | < 100 nM |
| CC(C)(C)OC(=O)NCC(=O)Nc1nc2ccc(Sc3cnc4ncccn34)cc2s1 [Example 11, 2-methylpropan-2-yl(2-{[6-(imidazo[1,2-a]pyrimidin-3-ylsulphanyl)-1,3-benzothiazol-2-yl]amino}-2-oxoethyl)carbamate] | < 1000 nM | > 260 °C | < 500 nM | < 100 nM |
| CCN1CCN(CC(=O)Nc2nc3ccc(Sc4cnc5ncccn45)cc3s2)CC1 [Example 15, 2-(4-ethylpiperazin-1-yl)-N-[6-(imidazo[1,2-a]pyrimidin-3-ylsulphanyl)-1,3-benzothiazol-2-yl]acetamide] | < 1000 nM | 210 °C | < 100 nM | < 100 nM |
| O=C(CN1CCN(C2CC2)CC1)Nc1nc2ccc(Sc3cnc4ncccn34)cc2s1 [Example 16, 2-(4-cyclopropylpiperazin-1-yl)-N-[6-(imidazo[1,2-a]pyrimidin-3-ylsulphanyl)-1,3-benzothiazol-2-yl]acetamide] | < 1000 nM | 224 °C | < 100 nM | < 100 nM |
| CCN(CC)CC(=O)Nc1nc2ccc(Sc3cnc4ncccn34)cc2s1 [Example 17, N2,N2-diethyl-N-[6-(imidazo[1,2-a]pyrimidin-3-ylsulphanyl)-1,3-benzothiazol-2-yl]glycinamide] | < 1000 nM | 180 °C | < 500 nM | < 100 nM |
| O=C(Nc1nc2cc(F)c(Sc3cnc4ncccn34)cc2s1)C1CC1 [Example 18, N-[5-fluoro-6-(imidazo[1,2-a]pyrimidin-3-ylsulphanyl)-1,3-benzothiazol-2-yl]cyclopropanecarboxamide] | < 1000 nM | > 260 °C | < 100 nM | < 100 nM |
| Nc1nc2cc(F)c(Sc3cnc4ncccn34)cc2s1 [Example 19, 5-fluoro-6-(imidazo[1,2-a]pyrimidin-3-ylsulphanyl)-1,3-benzothiazol-2-amine] | < 1000 nM | > 264 °C | < 100 nM | < 100 nM |
| COCCC(=O)Nc1nc2ccc(Sc3cnc4ncccn34)cc2s1 [Example 20, N-[6-(imidazo[1,2-a]pyrimidin-3-ylsulphanyl)-1,3-benzothiazol-2-yl]-3-methoxypropanamide] | < 1000 nM | 225 °C | < 100 nM | < 100 nM |
| Nc1ccn2c(Sc3ccc4nc(NC(=O)C5CC5)sc4c3)cnc2n1 [Example 22, N-{6-[(7-aminoimidazo[1,2-a]pyrimidin-3-yl)sulphanyl]-1,3-benzothiazol-2-yl}cyclopropanecarboxamide] | < 1000 nM | > 264 °C | < 100 nM | < 100 nM |
| O=C(Nc1nc2ccc(Sc3cnc4ncc(NCc5ccccc5)cn34)cc2s1)C1CC1 [Example 26, N-(6-{[6-(benzylamino)imidazo[1,2-a]pyrimidin-3-yl]sulphanyl}-1,3-benzothiazol-2-yl)cyclopropanecarboxamide] | < 1000 nM | > 260 °C | < 100 nM | < 100 nM |
| O=C(Nc1nc2ccc(Sc3cnc4ncccn34)cc2s1)C1CCOCC1 [Example 27, N-[6-(imidazo[1,2-a]pyrimidin-3-ylsulphanyl)-1,3-benzothiazol-2-yl]tetrahydro-2H-pyran-4-carboxamide] | < 1000 nM | 270 °C | < 500 nM | < 100 nM |
